Read-outs that look alike come from different tables or passages of the source.
Target: human histamine H3 receptor (Homo sapiens, UniProt Q9Y5N1)
Test: H3 GTPγS assay (SPA method), histamine H3 in vitro assay
Assay type: biochemical
Procedure: Briefly, cells expressing the human histamine H3 receptor were homogenized in 15 mM Tris-HCl pH 7.5, 2 mM MgCl2, 0.3 mM EDTA, and 1 mM EGTA. […] Membranes were frozen in liquid nitrogen until use. On the day of the assay, membranes were thawed and diluted in assay buffer (20 mM HEPES pH 7.4, 100 mM NaCl, 10 μg/ml saponin, 1 mM MgCl2) to give 500 μg/ml and mixed (v/v) with GDP in assay buffer for a final GDP concentration of 10 μM and incubated on ice for at least […]. PVT-WGA beads (Amersham, RPNQ001) were diluted in assay buffer at 50 mg/mL and mixed with GTPγ[^35S] (Amersham, SJ1308) diluted in assay buffer to give ˜25,000 dpm/10 μL and mixed vol/vol just before the start of the reaction.
For antagonists testing, 10 μL of a reference agonist ([…]) instead of 10 μL buffer was added at a concentration corresponding to the EC80 (30 nM).
The compounds provided herein were tested in the histamine H3 in vitro assay. In one embodiment, the respective HCl salts of the compounds provided herein were prepared using standard chemical procedures and tested in the histamine H3 in vitro assay.

[1] = membranes of cells expressing human H3, GTPγ[35S] SPA, antagonist testing with reference agonist at EC80 (30 nM), in one embodiment HCl salts tested, read-out: Potency (functional potency as indicated by IC50)

Sequence of human histamine H3 receptor (Q9Y5N1 whole entry): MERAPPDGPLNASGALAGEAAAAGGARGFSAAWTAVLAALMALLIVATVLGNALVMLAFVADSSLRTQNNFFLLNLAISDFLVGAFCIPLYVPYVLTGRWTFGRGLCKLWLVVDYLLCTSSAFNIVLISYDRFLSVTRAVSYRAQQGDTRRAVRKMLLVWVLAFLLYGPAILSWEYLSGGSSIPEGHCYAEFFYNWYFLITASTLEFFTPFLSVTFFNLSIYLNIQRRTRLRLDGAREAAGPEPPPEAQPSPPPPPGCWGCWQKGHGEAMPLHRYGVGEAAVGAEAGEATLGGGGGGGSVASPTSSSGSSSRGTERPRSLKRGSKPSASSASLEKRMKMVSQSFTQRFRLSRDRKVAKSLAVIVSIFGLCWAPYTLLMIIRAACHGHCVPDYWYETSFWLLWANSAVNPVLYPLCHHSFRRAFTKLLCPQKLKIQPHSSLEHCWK

Row | SMILES | IC50 [1] | IC50
1 | c1ccc2c(c1)ncn2-c1ccc2c(c1)nc1n2CC2CC1CN2C1CCC1 (stereo not drawn) [Compound 38, 8-(1H-benzo[d]imidazol-1-yl)-3-cyclobutyl-2,3,4,5-tetrahydro-1H-2,5-methanobenzo[4,5]imidazo[1,2-d][1,4]diazepine] | < 1000 nM | 
2 | NCc1ccc(-c2ccc3c(c2)nc2n3C3CCC2CN(C2CCC2)C3)cc1 (stereo not drawn) [Compound 31, (4-(3-cyclobutyl-2,3,4,5-tetrahydro-1H-1,5-ethanobenzo[4,5]imidazo[1,2-d][1,4]diazepin-8-yl)phenyl)methanamine] |  | < 100 nM
3 | c1coc(-c2ccc3c(c2)nc2n3CC3CCC(C2)N3C2CCC2)c1 (stereo not drawn) [Compound 19, 13-cyclobutyl-3-(furan-2-yl)-6,7,8,9,10,11-hexahydro-7,10-epiminobenzo[4,5]imidazo[1,2-a]azocine] |  | < 100 nM
4 | N#Cc1ccc(-c2ccc3c(c2)nc2n3CCCN3CCCCC3C2)cc1 (stereo not drawn) [Compound 66, 4-(2,3,4,6,7,8,15,15a-octahydro-1H-benzo[4,5]imidazo[1,2-a]pyrido[2,1-d][1,5]diazocin-12-yl)benzonitrile] | < 10 nM | 
5 | c1coc(-c2ccc3c(c2)nc2n3CCN3CCC[C@H]3C2)c1 [Compound 4, (5)-10-(furan-2-yl)-2,3,5,6,13,13a-hexahydro-1H-benzo[4,5]imidazo[1,2-d]pyrrolo[2,1-g][1,4]diazepine] | < 1000 nM | 
6 | Brc1ccc2c(c1)nc1n2CCN2CCCCC2C1 (stereo not drawn) [Compound 7, 11-bromo-1,2,3,4,6,7,14,14a-octahydrobenzo-[4,5]imidazo[1,2-d]pyrido[2,1-g][1,4]diazepine] | < 100 nM | 
7 | N#Cc1ccc(-c2ccc3c(c2)nc2n3CC3CCC(C2)N3C2CCC2)cc1F (stereo not drawn) [Compound 24, 4-(13-cyclobutyl-6,7,8,9,10,11-hexahydro-7,10-epiminobenzo[4,5]imidazo[1,2-a]azocin-3-yl)-2-fluorobenzonitrile] | < 10 nM | 
8 | c1cn(-c2ccc3c(c2)nc2n3CCN3CCCCC3C2)cn1 (stereo not drawn) [Compound 10, 11-(1H-imidazol-1-yl)-1,2,3,4,6,7,14,14a-octahydrobenzo[4,5]imidazo[1,2-d]pyrido[2,1-g][1,4]diazepine] | < 10 nM | 
9 | c1cc2cc(-c3ccc4c(c3)nc3n4C4CCC3CN(C3CCC3)C4)ccc2[nH]1 (stereo not drawn) [Compound 28, 3-cyclobutyl-8-(1H-indol-5-yl)-2,3,4,5-tetrahydro-1H-1,5-ethanobenzo[4,5]imidazo[1,2-d][1,4]diazepine] | > 1000 nM | 
10 | N#Cc1ccc(-c2ccc3c(c2)nc2n3CC3CC2CN3C2CCC2)cc1 (stereo not drawn) [Compound 36, 4-(3-cyclobutyl-2,3,4,5-tetrahydro-1H-2,5-methanobenzo[4,5]imidazo[1,2-d][1,4]diazepin-8-yl)benzonitrile] | < 1000 nM | 
11 | CC(=O)Nc1ccc(-c2ccc3c(c2)nc2n3CC3CCC(C2)N3C2CCC2)cc1 (stereo not drawn) [Compound 21, N-(4-(13-cyclobutyl-6,7,8,9,10,11-hexahydro-7,10-epiminobenzo[4,5]imidazo[1,2-a]azocin-3-yl)phenyl)acetamide] | < 10 nM | 
12 | c1coc(-c2ccc3c(c2)nc2n3C3CCC2CN(C2CCC2)C3)c1 (stereo not drawn) [Compound 29, 3-cyclobutyl-8-(furan-2-yl)-2,3,4,5-tetrahydro-1H-1,5-ethanobenzo[4,5]imidazo[1,2-d][1,4]diazepine] | < 1000 nM | 
13 | CC(=O)Nc1ccc(-c2ccc3c(c2)nc2n3C3CCC2CN(C2CCC2)C3)cc1 (stereo not drawn) [Compound 27, N-(4-(3-cyclobutyl-2,3,4,5-tetrahydro-1H-1,5-ethanobenzo[4,5]imidazo[1,2-d][1,4]diazepin-8-yl)phenyl)acetamide] | < 100 nM | 
14 | Brc1ccc2c(c1)nc1n2CCN2CCCC2C1 (stereo not drawn) [Compound 72, 10-bromo-2,3,5,6,13,13a-hexahydro-1H-benzo[4,5]imidazo[1,2-d]pyrrolo[2,1-g][1,4]diazepine] |  | < 100 nM
15 | c1cnc(-c2ccc3c(c2)nc2n3C3CCC2CN(C2CCC2)C3)cn1 (stereo not drawn) [Compound 30, 3-cyclobutyl-8-(pyrazin-2-yl)-2,3,4,5-tetrahydro-1H-1,5-ethanobenzo[4,5]imidazo[1,2-d][1,4]diazepine] | < 100 nM | 
16 | N#Cc1ccc(-c2ccc3c(c2)nc2n3CCN3CCCCC3C2)cc1 (stereo not drawn) [Compound 8, 4-(1,2,3,4,6,7,14,14a-octahydrobenzo[4,5]imidazo-[1,2-d]pyrido[2,1-g][1,4]diazepin-11-yl)benzonitrile] | < 10 nM | 
17 | c1cn2cc(-c3ccc4c(c3)nc3n4CC4CCC(C3)N4C3CCC3)ccc2n1 (stereo not drawn) [Compound 60, 13-cyclobutyl-3-(imidazo[1,2-a]pyridin-6-yl)-6,7,8,9,10,11-hexahydro-7,10-epiminobenzo[4,5]imidazo[1,2-a]azocine] | < 10 nM | 
18 | c1cc2cc(-c3ccc4c(c3)nc3n4CC4CCC(C3)N4C3CCC3)ccc2[nH]1 (stereo not drawn) [Compound 22, 13-cyclobutyl-3-(1H-indol-5-yl)-6,7,8,9,10,11-hexahydro-7,10-epiminobenzo[4,5]imidazo[1,2-a]azocine] | < 100 nM | 
19 | N#Cc1ccc(-c2ccc3c(c2)nc2n3CCN3CCC[C@H]3C2)cn1 [Compound 5, (S)-5-(2,3,5,6,13,13a-hexahydro-1H-benzo[4,5]imidazo[1,2-d]pyrrolo[2,1-g][1,4]diazepin-10-yl)picolinonitrile] | < 100 nM | 
20 | Clc1ccc2c(c1)nc1n2C2CCC1CN(C1CCC1)C2 (stereo not drawn) [Compound 25, 8-chloro-3-cyclobutyl-2,3,4,5-tetrahydro-1H-1,5-ethanobenzo[4,5]imidazo[1,2-d][1,4]diazepine] | < 1000 nM | 
21 | N#Cc1ccc(-c2ccc3c(c2)nc2n3CC3CCC(C2)N3C2CCC2)cc1 (stereo not drawn) [Compound 20, 4-(13-cyclobutyl-6,7,8,9,10,11-hexahydro-7,10-epiminobenzo[4,5]imidazo[1,2-a]azocin-3-yl)benzonitrile] | < 10 nM | 

Continued, in another order:

Row | IC50 [1] | SMILES | IC50
22 | < 100 nM | c1ccc2c(c1)CCN(Cc1ccc3c(c1)nc1n3CCN3CCCC[C@H]3C1)C2 [Compound 65, (S)-11-((3,4-dihydroisoquinolin-2(1H)-yl)methyl)-1,2,3,4,6,7,14,14a-octahydrobenzo[4,5]imidazo[1,2-d]pyrido[2,1-g][1,4]diazepine] | 
23 | < 10 nM | c1cn2cc(-c3ccc4c(c3)nc3n4CCCN4CCCCC4C3)ccc2n1 (stereo not drawn) [Compound 67, 12-(imidazo[1,2-a]pyridin-6-yl)-2,3,4,6,7,8,15,15a-octahydro-1H-benzo[4,5]imidazo[1,2-a]pyrido[2,1-d][1,5]diazocine] | 
24 | < 100 nM | c1ccc2c(c1)CCN(Cc1ccc3c(c1)nc1n3CCCN3CCCCC3C1)C2 (stereo not drawn) [Compound 69] | 
25 | > 1000 nM | Brc1ccc2c(c1)nc1n2CCN(C2CCC2)C1 [Compound 52, 8-bromo-2-cyclobutyl-1,2,3,4-tetrahydrobenzo[4,5]imidazo[1,2-a]pyrazine] | 
26 | < 10 nM | c1cc2c(cc1CN1CCOCC1)nc1n2CCN(C2CCC2)C1 [Compound 56, 4-((2-cyclobutyl-1,2,3,4-tetrahydrobenzo-[4,5]imidazo[1,2-a]pyrazin-8-yl)methyl)morpholine] | 
27 | < 1000 nM | N#Cc1ccc(-c2ccc3c(c2)nc2n3CCN(C3CCC3)C2)cc1 [Compound 53, 4-(2-cyclobutyl-1,2,3,4-tetrahydrobenzo-[4,5]imidazo[1,2-a]pyrazin-8-yl)benzonitrile] | 
28 | < 100 nM | c1cn2cc(-c3ccc4c(c3)nc3n4CCCN4CCCCC4C3)ccc2n1 (single isomer, unassigned) [Compound 71] | 
29 | < 1000 nM | Clc1ccc2c(c1)nc1n2CC2CC1CN2C1CCC1 (stereo not drawn) [Compound 35, 8-chloro-3-cyclobutyl-2,3,4,5-tetrahydro-1H-2,5-methanobenzo[4,5]imidazo[1,2-d][1,4]diazepine] | 
30 | < 100 nM | CC1Cc2nc3cc(Br)ccc3n2CCN1C1CCC1 (stereo not drawn) [Compound 40, 8-bromo-3-cyclobutyl-4-methyl-2,3,4,5-tetrahydro-1H-benzo[4,5]imidazo[1,2-d][1,4]diazepine] | 
31 | < 10 nM | N#Cc1ccc(-c2ccc3c(c2)nc2n3CCN3CCCCC3C2)cc1 (single isomer, unassigned) [Compound 47] | 
32 | < 10 nM | N#Cc1ccc(-c2ccc3c(c2)nc2n3CCN3CCCC3C2)cc1 (stereo not drawn) [Compound 73, 4-(2,3,5,6,13,13a-hexahydro-1H-benzo[4,5]imidazo[1,2-d]pyrrolo[2,1-g][1,4]diazepin-10-yl)benzonitrile] | 
33 | < 100 nM | Brc1ccc2c(c1)nc1n2CCCN2CCCC2C1 (stereo not drawn) [Compound 79, 11-bromo-1,2,3,5,6,7,14,14a-octahydrobenzo[4,5]imidazo[1,2-a]pyrrolo[2,1-d][1,5]diazocine] | 
34 | < 100 nM | CC1Cn2c(nc3cc(-c4ccc(C#N)cc4)ccc32)CCN1C1CCC1 (stereo not drawn) [Compound 43, 4-(3-cyclobutyl-2-methyl-2,3,4,5-tetrahydro-1H-benzo[4,5]imidazo[1,2-d][1,4]diazepin-8-yl)benzonitrile] | 
35 | < 1000 nM | N#Cc1ccc(-c2ccc3c(c2)nc2n3CC3CCCN3CC2)cc1 (stereo not drawn) [Compound 13, 4-(2,3,5,6,13,13a-hexahydro-1H-benzo[4,5]imidazo[1,2-d]pyrrolo[1,2-a][1,4]diazepin-9-yl)benzonitrile] | 
36 | < 10 nM | c1cn2cc(-c3ccc4c(c3)nc3n4CCCN4CCCC4C3)ccc2n1 (stereo not drawn) [Compound 81, 11-(imidazo[1,2-a]pyridin-6-yl)-1,2,3,5,6,7,14,14a-octahydrobenzo[4,5]imidazo[1,2-a]pyrrolo[2,1-d][1,5]diazocine] | 

Reference: patent publication US20110065694A1 (priority 2009, published 2011)
